From patent publication US10202361B2, “Pyridazinones as herbicides” (E I DU PONT DE NEMOURS AND COMPANY, priority 2014, dated 2019)

Key:
Assay type in all cases: in vivo
[1] = system: Russian thistle (Salsola kali); test: Test D pre-/postemergence controlled growth environment herbicide test; conditions: scale 0 to 100
Source text: (§1) Seeds of plant species selected from bluegrass (annual bluegrass, Poa annua), blackgrass (Alopecurus myosuroides), canarygrass (Phalaris minor), chickweed (common chickweed, Stellaria media), galium (catchweed bedstraw, Galium aparine), downy bromegrass (Bromus tectorum), field poppy (Papaver rhoeas), field violet (Viola arvensis), foxtail, green (green foxtail, Setaria viridis), deadnettle (henbit deadnettle, Lamium amplexicaule), ryegrass, Italian (Italian ryegrass, Lolium multiflorum), kochia (Kochia scoparia), lambsquarters (Chenopodium album), oilseed rape (Brassica napus), pigweed (Amaranthus retroflexus), chamomile (scentless chamomile, Matricaria inodora), Russian thistle (Salsola kali), speedwell (bird's-eye speedwell, Veronica persica), barley, spring (spring barley, Hordeum vulgare), wheat, spring (spring wheat, Triticum aestivum), buckwheat, wild (wild buckwheat, Polygonum convolvulus), mustard, wild (wild mustard, Sinapis arvensis), oat, wild (wild oat, Avena fatua), radish, wild (wild radish, Raphanus raphanistrum), windgrass (Apera spica-venti), barley, winter (winter barley, Hordeum vulgare), and wheat, winter (winter wheat, Triticum aestivum) were planted into a silt loam soil and treated preemergence with test chemicals formulated in a non-phytotoxic solvent mixture which included a surfactant.
(§2) At the same time, these species were planted in pots containing Redi-Earth® planting medium (Scotts Company, 14111 Scottslawn Road, Marysville, Ohio 43041) comprising spaghnum peat moss, vermiculite, wetting agent and starter nutrients and treated with postemergence applications of the test chemicals formulated in the same manner. Plants ranged in height from 2 to 18 cm (1- to 4-leaf stage). Treated plants and controls were maintained in a controlled growth environment for 14 to 21 d after which time all species were compared to controls and visually evaluated. Plant response ratings, summarized in Table D, are based on a scale of 0 to 100 where 0 is no effect and 100 is complete control. A dash (-) response means no test result.

[2] = system: blackgrass (Alopecurus myosuroides); test: as above; conditions: scale 0 to 100
Source text: as §1, §2

[3] = system: poinsettia, wild (wild poinsettia, Euphorbia heterophylla); test: Test E pre-/postemergence greenhouse herbicide test; conditions: scale 0 to 100
[4] = system: barnyardgrass (Echinochloa crus-galli); test: as above; conditions: scale 0 to 100
Outline: (§3)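 Pre- and postemergence greenhouse spray; compound in non-phytotoxic solvent + surfactant. Pre: silt loam soil at planting. Post: 1- to 4-leaf plants, 2 to 18 cm, peat-based medium. Visual score 0–100 vs untreated controls at 14 to 21 d.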

[5] = system: beggarticks (hairy beggarticks, Bidens pilosa); test: as above; conditions: scale 0 to 100
Outline: as §3

corn (Zea mays) = test: as above; conditions: scale 0 to 100
Outline: as §3

[6] = system: foxtail, giant (giant foxtail, Setaria faberii); test: as above; conditions: Preemergence, scale 0 to 100
Outline: as §3

[7] = system: johnsongrass (Sorghum halepense); test: as above; conditions: Preemergence, scale 0 to 100
Outline: as §3

[8] = system: pigweed, palmer (palmer pigweed, Amaranthus palmeri); test: as above; conditions: scale 0 to 100
Outline: as §3

## Cc1cc(=O)n(-c2ccc(F)cc2)nc1Cc1ccnc(C(F)(F)F)c1 [Compound 1, 2-(4-fluorophenyl)-5-methyl-6-[[2-(trifluoromethyl)-4-pyridinyl]methyl]-3(2H)-pyridazinone]
[1]; Postemergence, 62 g ai/ha
  Plant response rating: 20
[1]; Postemergence, 250 g ai/ha
  Plant response rating: 50
[1]; Preemergence, 62 g ai/ha
  Plant response rating: 20
[1]; Preemergence, 125 g ai/ha
  Plant response rating: 100
[1]; Preemergence, 250 g ai/ha
  Plant response rating: 100
[1]; Preemergence, 500 g ai/ha
  Plant response rating: 100
[2]; Postemergence, 31 g ai/ha
  Plant response rating: 0
[2]; Postemergence, 62 g ai/ha
  Plant response rating: 10
[2]; Postemergence, 125 g ai/ha
  Plant response rating: 10
[2]; Postemergence, 250 g ai/ha
  Plant response rating: 20
[2]; Postemergence, 500 g ai/ha
  Plant response rating: 20
[2]; Preemergence, 31 g ai/ha
  Plant response rating: 0
[2]; Preemergence, 62 g ai/ha
  Plant response rating: 0
[2]; Preemergence, 125 g ai/ha
  Plant response rating: 20
[2]; Preemergence, 250 g ai/ha
  Plant response rating: 40
[2]; Preemergence, 500 g ai/ha
  Plant response rating: 75

## Cc1cc(=O)n(-c2ccc(C(F)(F)F)cc2)nc1Cc1ccnc(C(F)(F)F)c1 [Compound 2, 5-methyl-2-[4-(trifluoromethyl)phenyl]-6-[[2-(trifluoromethyl)-4-pyridinyl]methyl]-3(2H)-pyridazinone]
[1]; Postemergence, 62 g ai/ha
  Plant response rating: 25
[1]; Postemergence, 250 g ai/ha
  Plant response rating: 80
[1]; Postemergence, 500 g ai/ha
  Plant response rating: 100
[1]; Preemergence, 62 g ai/ha
  Plant response rating: 0
[1]; Preemergence, 125 g ai/ha
  Plant response rating: 100
[1]; Preemergence, 250 g ai/ha
  Plant response rating: 100
[1]; Preemergence, 500 g ai/ha
  Plant response rating: 100
[2]; Postemergence, 31 g ai/ha
  Plant response rating: 5
[2]; Postemergence, 62 g ai/ha
  Plant response rating: 15
[2]; Postemergence, 125 g ai/ha
  Plant response rating: 20
[2]; Postemergence, 250 g ai/ha
  Plant response rating: 30
[2]; Postemergence, 500 g ai/ha
  Plant response rating: 50
[2]; Preemergence, 31 g ai/ha
  Plant response rating: 5
[2]; Preemergence, 62 g ai/ha
  Plant response rating: 20
[2]; Preemergence, 125 g ai/ha
  Plant response rating: 60
[2]; Preemergence, 250 g ai/ha
  Plant response rating: 60
[2]; Preemergence, 500 g ai/ha
  Plant response rating: 80

## Cc1cc(=O)n(-c2ccc(F)cc2)nc1Oc1ccnc(C(F)(F)F)c1 [Compound 14, 2-(4-fluorophenyl)-5-methyl-6-[[2-(trifluoromethyl)-4-pyridinyl]oxy]-3 (2H)-pyridazinone]
[1]; Postemergence, 16 g ai/ha
  Plant response rating: 20
[1]; Postemergence, 31 g ai/ha
  Plant response rating: 10
[1]; Postemergence, 62 g ai/ha
  Plant response rating: 15
[1]; Postemergence, 125 g ai/ha
  Plant response rating: 20
[1]; Postemergence, 250 g ai/ha
  Plant response rating: 35
[1]; Preemergence, 16 g ai/ha
  Plant response rating: 0
[1]; Preemergence, 31 g ai/ha
  Plant response rating: 50
[1]; Preemergence, 62 g ai/ha
  Plant response rating: 85
[1]; Preemergence, 125 g ai/ha
  Plant response rating: 50
[1]; Preemergence, 250 g ai/ha
  Plant response rating: 95
[2]; Postemergence, 16 g ai/ha
  Plant response rating: 5
[2]; Postemergence, 31 g ai/ha
  Plant response rating: 10
[2]; Postemergence, 62 g ai/ha
  Plant response rating: 10
[2]; Postemergence, 125 g ai/ha
  Plant response rating: 10
[2]; Postemergence, 250 g ai/ha
  Plant response rating: 10
[2]; Preemergence, 16 g ai/ha
  Plant response rating: 0
[2]; Preemergence, 31 g ai/ha
  Plant response rating: 0
[2]; Preemergence, 62 g ai/ha
  Plant response rating: 10
[2]; Preemergence, 125 g ai/ha
  Plant response rating: 20
[2]; Preemergence, 250 g ai/ha
  Plant response rating: 70

## COc1cc(=O)n(-c2ccc(C(F)(F)F)cc2)nc1Cc1ccnc(C(F)(F)F)c1 [Compound 16, 5-methoxy-2-[4-(trifluoromethyl)phenyl]-6-[[2-(trifluoromethyl)-4-pyridinyl]methyl]-3(2H)-pyridazinone]
[3]; Postemergence, 62 g ai/ha
  Plant response rating: Poinsettia, Wild: 60
[3]; Postemergence, 125 g ai/ha
  Plant response rating: Poinsettia, Wild: 70
[3]; Postemergence, 250 g ai/ha
  Plant response rating: Poinsettia, Wild: 75
[3]; Preemergence, 62 g ai/ha
  Plant response rating: Poinsettia, Wild: 35
[3]; Preemergence, 125 g ai/ha
  Plant response rating: Poinsettia, Wild: 35
[3]; Preemergence, 250 g ai/ha
  Plant response rating: Poinsettia, Wild: 65
[4]; Postemergence, 62 g ai/ha
  Plant response rating: Barnyardgrass: 15
[4]; Postemergence, 125 g ai/ha
  Plant response rating: Barnyardgrass: 30
[4]; Postemergence, 250 g ai/ha
  Plant response rating: Barnyardgrass: 50
[4]; Preemergence, 62 g ai/ha
  Plant response rating: Barnyardgrass: 35
[4]; Preemergence, 125 g ai/ha
  Plant response rating: Barnyardgrass: 50
[4]; Preemergence, 250 g ai/ha
  Plant response rating: Barnyardgrass: 70
[5]; Postemergence, 62 g ai/ha
  Plant response rating: Beggarticks: 30
[5]; Postemergence, 125 g ai/ha
  Plant response rating: Beggarticks: 50
[5]; Postemergence, 250 g ai/ha
  Plant response rating: Beggarticks: 50
[5]; Preemergence, 62 g ai/ha
  Plant response rating: Beggarticks: 0
[5]; Preemergence, 125 g ai/ha
  Plant response rating: Beggarticks: 0
[5]; Preemergence, 250 g ai/ha
  Plant response rating: Beggarticks: 20
Corn (Zea mays); Postemergence, 62 g ai/ha
  Plant response rating: Corn: 30
Corn (Zea mays); Postemergence, 125 g ai/ha
  Plant response rating: Corn: 40
Corn (Zea mays); Postemergence, 250 g ai/ha
  Plant response rating: Corn: 50
Corn (Zea mays); Preemergence, 62 g ai/ha
  Plant response rating: Corn: 40
Corn (Zea mays); Preemergence, 125 g ai/ha
  Plant response rating: Corn: 40
Corn (Zea mays); Preemergence, 250 g ai/ha
  Plant response rating: Corn: 65
[6]; 62 g ai/ha
  Plant response rating: Foxtail, Giant: 75
[6]; 125 g ai/ha
  Plant response rating: Foxtail, Giant: 90
[6]; 250 g ai/ha
  Plant response rating: Foxtail, Giant: 100
[7]; 62 g ai/ha
  Plant response rating: Johnsongrass: 35
[7]; 125 g ai/ha
  Plant response rating: Johnsongrass: 60
[7]; 250 g ai/ha
  Plant response rating: Johnsongrass: 60
[8]; Postemergence, 62 g ai/ha
  Plant response rating: Pigweed, Palmer: 70
[8]; Postemergence, 125 g ai/ha
  Plant response rating: Pigweed, Palmer: 75
[8]; Postemergence, 250 g ai/ha
  Plant response rating: Pigweed, Palmer: 95
[8]; Preemergence, 62 g ai/ha
  Plant response rating: Pigweed, Palmer: 98
[8]; Preemergence, 125 g ai/ha
  Plant response rating: Pigweed, Palmer: 98
[8]; Preemergence, 250 g ai/ha
  Plant response rating: Pigweed, Palmer: 98

## CCOc1cc(=O)n(-c2ccc(F)cc2)nc1Cc1ccnc(C(F)(F)F)c1 [Compound 25, 5-ethoxy-2-(4-fluorophenyl)-6-[[2-(trifluoromethyl)-4-pyridinyl]methyl]-3 (2H)-pyridazinone]
[3]; Preemergence, 8 g ai/ha
  Plant response rating: Poinsettia, Wild: 0
[3]; Preemergence, 16 g ai/ha
  Plant response rating: Poinsettia, Wild: 0
[3]; Preemergence, 31 g ai/ha
  Plant response rating: Poinsettia, Wild: 0
[3]; Preemergence, 62 g ai/ha
  Plant response rating: Poinsettia, Wild: 50
[3]; Preemergence, 125 g ai/ha
  Plant response rating: Poinsettia, Wild: 10
[4]; Preemergence, 8 g ai/ha
  Plant response rating: Barnyardgrass: 0
[4]; Preemergence, 16 g ai/ha
  Plant response rating: Barnyardgrass: 5
[4]; Preemergence, 31 g ai/ha
  Plant response rating: Barnyardgrass: 15
[4]; Preemergence, 62 g ai/ha
  Plant response rating: Barnyardgrass: 35
[4]; Preemergence, 125 g ai/ha
  Plant response rating: Barnyardgrass: 60
[5]; Preemergence, 8 g ai/ha
  Plant response rating: Beggarticks: 0
[5]; Preemergence, 16 g ai/ha
  Plant response rating: Beggarticks: 0
[5]; Preemergence, 31 g ai/ha
  Plant response rating: Beggarticks: 0
[5]; Preemergence, 62 g ai/ha
  Plant response rating: Beggarticks: 0
[5]; Preemergence, 125 g ai/ha
  Plant response rating: Beggarticks: 15
Corn (Zea mays); Preemergence, 8 g ai/ha
  Plant response rating: Corn: 0
Corn (Zea mays); Preemergence, 16 g ai/ha
  Plant response rating: Corn: 10
Corn (Zea mays); Preemergence, 31 g ai/ha
  Plant response rating: Corn: 25
Corn (Zea mays); Preemergence, 62 g ai/ha
  Plant response rating: Corn: 40
Corn (Zea mays); Preemergence, 125 g ai/ha
  Plant response rating: Corn: 35
[6]; 8 g ai/ha
  Plant response rating: Foxtail, Giant: 0
[6]; 16 g ai/ha
  Plant response rating: Foxtail, Giant: 0
[6]; 31 g ai/ha
  Plant response rating: Foxtail, Giant: 0
[6]; 62 g ai/ha
  Plant response rating: Foxtail, Giant: 5
[6]; 125 g ai/ha
  Plant response rating: Foxtail, Giant: 20
[7]; 8 g ai/ha
  Plant response rating: Johnsongrass: 0
[7]; 16 g ai/ha
  Plant response rating: Johnsongrass: 0
[7]; 31 g ai/ha
  Plant response rating: Johnsongrass: 10
[7]; 62 g ai/ha
  Plant response rating: Johnsongrass: 35
[7]; 125 g ai/ha
  Plant response rating: Johnsongrass: 65
[8]; Preemergence, 8 g ai/ha
  Plant response rating: Pigweed, Palmer: 0
[8]; Preemergence, 16 g ai/ha
  Plant response rating: Pigweed, Palmer: 95
[8]; Preemergence, 31 g ai/ha
  Plant response rating: Pigweed, Palmer: 95
[8]; Preemergence, 62 g ai/ha
  Plant response rating: Pigweed, Palmer: 100
[8]; Preemergence, 125 g ai/ha
  Plant response rating: Pigweed, Palmer: 100
